US8802597B2, “Herbicidal pyrimidines” (E I du Pont de Nemours and Company, priority 2003, dated 2014)
Like-named read-outs stand apart in the source and are kept apart here.

Columns and labels:
Assay in all cases: Test C pre/postemergence
Type in all cases: in vivo
[1] = test system: Surinam grass (Brachiaria decumbens); details: Urochloa decumbens; for pest or weed control at 125 g/ha: 125 g ai/ha; for pest or weed control at 500 g/ha: 500 g ai/ha; for pest or weed control at 62 g/ha: 62 g ai/ha; for pest or weed control at 250 g/ha: 250 g ai/ha
Method in brief: (§1)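 We sprayed seeded pots preemergence and 2–18 cm seedlings postemergence with test chemicals in a non-phytotoxic solvent mixture including surfactant. Greenhouse plants were visually compared with untreated controls at 12 to 14 days and scored 0 (no effect) to 100 (complete control).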

[2] = test system: bermudagrass (Cynodon dactylon); details: Cynodon dactylon; for pest or weed control at 62 g/ha: 62 g ai/ha; for pest or weed control at 125 g/ha: 125 g ai/ha; for pest or weed control at 125 g/ha / pest or weed control at 250 g/ha / pest or weed control at 500 g/ha: scale 0 to 100; for pest or weed control at 250 g/ha: 250 g ai/ha; for pest or weed control at 500 g/ha: 500 g ai/ha
Method in brief: as §1

[3] = test system: cocklebur (Xanthium strumarium); details: Xanthium strumarium; for pest or weed control at 62 g/ha: 62 g ai/ha; for pest or weed control at 125 g/ha: 125 g ai/ha; for pest or weed control at 250 g/ha: 250 g ai/ha; for pest or weed control at 500 g/ha: 500 g ai/ha
Method in brief: as §1

[4] = test system: common (oilseed) sunflower (Helianthus annuus); details: Helianthus annuus, pre-emergence, Preemergence, read-out: Plant response rating, Sunflower
Method in brief: as §1

[5] = test system: common ragweed (Ambrosia elatior); details: Ambrosia artemisiifolia; for pest or weed control at 62 g/ha: 62 g ai/ha; for pest or weed control at 125 g/ha: 125 g ai/ha; for pest or weed control at 250 g/ha: 250 g ai/ha; for pest or weed control at 500 g/ha: 500 g ai/ha
Method in brief: as §1

corn (Zea mays) = details: Zea mays; for Corn plant response rating (crop injury, 0 = no effect, 100 = complete kill) at 125 g/ha: 125 g ai/ha; for Corn plant response rating (crop injury, 0 = no effect, 100 = complete kill) at 250 g/ha: 250 g ai/ha; for Corn plant response rating (crop injury, 0 = no effect, 100 = complete kill) at 500 g/ha: 500 g ai/ha
Method in brief: as §1

[6] = post-emergence, Postemergence, scale 0 to 100 (0 no effect, 100 complete control), read-out: Surinam Grass plant response rating
[7] = post-emergence, Postemergence, scale 0 to 100, read-out: Plant response rating, Surinam Grass
[8] = pre-emergence, Preemergence, scale 0 to 100, read-out: Plant response rating, Surinam Grass
[9] = post-emergence, Postemergence, read-out: Plant response rating, Bermudagrass
[10] = pre-emergence, Preemergence, read-out: Plant response rating, Bermudagrass
[11] = post-emergence, Postemergence, scale 0 to 100 (0 no effect, 100 complete control), read-out: Cocklebur plant response rating
[12] = post-emergence, Postemergence, scale 0 to 100, read-out: Plant response rating, Cocklebur
[13] = pre-emergence, Preemergence, scale 0 to 100, read-out: Plant response rating, Cocklebur
[14] = post-emergence, Postemergence, scale 0 to 100 (0 no effect, 100 complete control), read-out: Ragweed plant response rating
[15] = post-emergence, Postemergence, scale 0 to 100, read-out: Plant response rating, Ragweed
[16] = pre-emergence, Preemergence, scale 0 to 100, read-out: Plant response rating, Ragweed
[17] = post-emergence, Postemergence, scale 0 to 100
[18] = pre-emergence, Preemergence, scale 0 to 100

## CCOC(=O)c1nc(C2CC2)nc(N)c1Cl [Compound 4, ethyl 6-amino-5-chloro-2-cyclopropyl-4-pyrimidinecarboxylate]
[1]; [6]
  pest or weed control at 125 g/ha: 75%
  pest or weed control at 62 g/ha: 60%
[1]; [7]
  pest or weed control at 500 g/ha: 95%
  pest or weed control at 250 g/ha: 75%
[1]; pre-emergence, Preemergence, scale 0 to 100, 0 no effect, 100 complete control, read-out: Plant response rating, Surinam Grass
  pest or weed control at 62 g/ha: 0%
[1]; [8]
  pest or weed control at 125 g/ha: 65%
  pest or weed control at 250 g/ha: 85%
  pest or weed control at 500 g/ha: 100%
[2]; post-emergence, Postemergence, scale 0 to 100 (0 no effect, 100 complete control), read-out: Bermudagrass plant response rating
  pest or weed control at 62 g/ha: 40%
[2]; [9]
  pest or weed control at 125 g/ha: 65%
  pest or weed control at 250 g/ha: 70%
  pest or weed control at 500 g/ha: 80%
[2]; pre-emergence, Preemergence, scale 0 to 100, 0 no effect, 100 complete control, read-out: Plant response rating, Bermudagrass
  pest or weed control at 62 g/ha: 0%
[2]; [10]
  pest or weed control at 125 g/ha: 20%
  pest or weed control at 250 g/ha: 45%
  pest or weed control at 500 g/ha: 95%
[3]; [11]
  pest or weed control at 62 g/ha: 85%
  pest or weed control at 125 g/ha: 100%
[3]; [12]
  pest or weed control at 250 g/ha: 100%
  pest or weed control at 500 g/ha: 100%
[3]; pre-emergence, Preemergence, scale 0 to 100, 0 no effect, 100 complete control, read-out: Plant response rating, Cocklebur
  pest or weed control at 62 g/ha: 80%
[3]; [13]
  pest or weed control at 125 g/ha: 95%
  pest or weed control at 250 g/ha: 100%
  pest or weed control at 500 g/ha: 100%
[4]; 62 g ai/ha, scale 0 to 100, 0 no effect, 100 complete control
  pest or weed control at 62 g/ha: 100%
[4]; 125 g ai/ha, scale 0 to 100
  pest or weed control at 125 g/ha: 100%
[4]; 250 g ai/ha, scale 0 to 100
  pest or weed control at 250 g/ha: 100%
[4]; 500 g ai/ha, scale 0 to 100
  pest or weed control at 500 g/ha: 100%
[5]; [14]
  pest or weed control at 62 g/ha: 100%
  pest or weed control at 125 g/ha: 100%
[5]; [15]
  pest or weed control at 250 g/ha: 100%
  pest or weed control at 500 g/ha: 100%
[5]; pre-emergence, Preemergence, scale 0 to 100, 0 no effect, 100 complete control, read-out: Plant response rating, Ragweed
  pest or weed control at 62 g/ha: 100%
[5]; [16]
  pest or weed control at 125 g/ha: 100%
  pest or weed control at 250 g/ha: 100%
  pest or weed control at 500 g/ha: 100%
Corn (Zea mays); post-emergence, Postemergence, 62 g ai/ha, scale 0 to 100 (0 no effect, 100 complete control), read-out: Corn plant response rating
  Corn plant response rating (crop injury, 0 = no effect, 100 = complete kill) at 62 g/ha: 0%
Corn (Zea mays); post-emergence, Postemergence, scale 0 to 100 (0 no effect, 100 complete control), read-out: Corn plant response rating
  Corn plant response rating (crop injury, 0 = no effect, 100 = complete kill) at 125 g/ha: 80%
Corn (Zea mays); [17]
  Corn plant response rating (crop injury, 0 = no effect, 100 = complete kill) at 250 g/ha: 90%
  Corn plant response rating (crop injury, 0 = no effect, 100 = complete kill) at 500 g/ha: 95%
Corn (Zea mays); pre-emergence, Preemergence, scale 0 to 100, read-out: Plant response rating, Corn
  Corn plant response rating (crop injury, 0 = no effect, 100 = complete kill) at 125 g/ha: 0%
Corn (Zea mays); [18]
  Corn plant response rating (crop injury, 0 = no effect, 100 = complete kill) at 250 g/ha: 75%
  Corn plant response rating (crop injury, 0 = no effect, 100 = complete kill) at 500 g/ha: 90%
